Source: article PMC11231114 (EJNMMI Research, 2024)

Assay: Ex vivo biodistribution after i.v. injection
Assay type: in vivo, Wistar rats
Procedure: Approximately 0.2 mL/31.1 MBq of compound was administered i.v. At established time points after injection (15 min, 30 min, 1 h, 2 h, 4 h and 6 h), the animals were euthanized by cervical dislocation and dissected. Selected organs and tissues were weighed, and their radioactivity was measured using a NaI(Tl) crystal gamma counter. The results were adjusted for the radioactive decay of ^18F. The physiological distribution was calculated and expressed in terms of the percentage of administrated dose found in each of the selected organs (%ID) or per gram of tissues/organ (%ID/g) with suitable standards of the injected dose.
The results of radiopharmaceutical uptake are presented as a percentage of the dose administered per gram of tissue (%ID/g) in the form of an average with standard deviation (%ID/g; mean ± standard deviation (SD)). Where applicable, statistical analysis was performed with one-way analysis of variance (ANOVA) using GraphPad Prism software (GraphPad Software, La Jolla, CA, USA).

[1] = 15 min after dosing, listed as [18F]SYN2
[2] = 6 h after dosing, listed as [18F]SYN2

## CN(C)c1ccc2cc3ccc(N(C)C)cc3[n+](CC[18F])c2c1 [[^18F]SYN2]
15 min after dosing
  Mean %ID, Brain: 0.23 (0.09) %ID
  Mean %ID, Heart: 2.15 (0.18) %ID
  Mean %ID, Intestine: 17.1 ± 1.8 %ID
  Mean %ID, Kidneys: 13.4 ± 4.0 %ID
  Mean %ID, Liver: 7.57 (0.96) %ID
  Mean %ID, Lungs: 3.88 (0.36) %ID
  Mean %ID, Pancreas: 1.33 (0.23) %ID
  Mean %ID, Rest of the body: 51.01 (2.66) %ID
  Mean %ID, Spleen: 1.01 (0.20) %ID
  Mean %ID, Stomach: 1.99 (0.68) %ID
  Mean %ID, Urine: 0.46 (0.31) %ID
  Mean %ID/g, Blood: 0.33 (0.04) %ID/g
  Mean %ID/g, Brain: 0.13 (0.15) %ID/g
  Mean %ID/g, Heart: 3.02 %ID/g
  Mean %ID/g, Intestine: 0.98 (0.10) %ID/g
  Mean %ID/g, Kidneys: 7.07 (1.77) %ID/g
  Mean %ID/g, Liver: 0.89 (0.14) %ID/g
  Mean %ID/g, Lungs: 3.04 (0.55) %ID/g
  Mean %ID/g, Muscle: 0.82 (0.13) %ID/g
  Mean %ID/g, Pancreas: 2.22 (0.24) %ID/g
  Mean %ID/g, Spleen: 1.96 (0.51) %ID/g
  Mean %ID/g, Stomach: 1.65 (0.94) %ID/g
[1]
  Mean %ID, Intestine: 17.12 (1.81) %ID
  Mean %ID, Kidneys: 13.35 (3.97) %ID
30 min after dosing
  Mean %ID, Brain: 0.19 (0.01) %ID
  Mean %ID, Heart: 2.19 (0.26) %ID
  Mean %ID, Intestine: 18.27 (1.40) %ID
  Mean %ID, Kidneys: 14.01 (3.78) %ID
  Mean %ID, Liver: 6.87 (1.10) %ID
  Mean %ID, Lungs: 2.64 (0.47) %ID
  Mean %ID, Pancreas: 0.97 (0.32) %ID
  Mean %ID, Rest of the body: 51.34 (1.73) %ID
  Mean %ID, Spleen: 0.79 (0.16) %ID
  Mean %ID, Stomach: 1.54 (0.12) %ID
  Mean %ID, Urine: 0.53 (0.25) %ID
  Mean %ID/g, Blood: 0.14 (0.02) %ID/g
  Mean %ID/g, Brain: 0.11 (0.00) %ID/g
  Mean %ID/g, Heart: 2.96 (0.49) %ID/g
  Mean %ID/g, Intestine: 1.29 (0.40) %ID/g
  Mean %ID/g, Kidneys: 7.22 (2.09) %ID/g
  Mean %ID/g, Liver: 0.74 (0.11) %ID/g
  Mean %ID/g, Lungs: 1.85 (0.24) %ID/g
  Mean %ID/g, Muscle: 0.46 (0.11) %ID/g
  Mean %ID/g, Pancreas: 1.75 (0.56) %ID/g
  Mean %ID/g, Spleen: 1.59 (0.41) %ID/g
  Mean %ID/g, Stomach: 1.11 (0.08) %ID/g
1 h, based on %ID/g
  heart/liver ratio: 7.0 ± 1.8
  heart/lungs ratio: 2.1 ± 0.2
1 h after dosing
  Mean %ID, Brain: 0.22 (0.12) %ID
  Mean %ID, Heart: 2.23 (0.11) %ID
  Mean %ID, Intestine: 20.18 (3.19) %ID
  Mean %ID, Kidneys: 12.91 (2.36) %ID
  Mean %ID, Liver: 3.66 (0.83) %ID
  Mean %ID, Lungs: 1.89 (0.23) %ID
  Mean %ID, Pancreas: 0.93 (0.01) %ID
  Mean %ID, Rest of the body: 46.30 (1.89) %ID
  Mean %ID, Spleen: 0.60 (0.10) %ID
  Mean %ID, Stomach: 1.84 (0.47) %ID
  Mean %ID, Urine: 1.59 (0.30) %ID
  Mean %ID/g, Blood: 0.08 (0.02) %ID/g
  Mean %ID/g, Brain: 0.12 (0.06) %ID/g
  Mean %ID/g, Heart: 3.0 ± 0.2 %ID/g
  Mean %ID/g, Intestine: 1.04 (0.18) %ID/g
  Mean %ID/g, Kidneys: 6.76 (1.23) %ID/g
  Mean %ID/g, Liver: 0.45 (0.11) %ID/g
  Mean %ID/g, Lungs: 1.42 (0.15) %ID/g
  Mean %ID/g, Muscle: 0.58 (0.18) %ID/g
  Mean %ID/g, Pancreas: 1.63 (0.16) %ID/g
  Mean %ID/g, Spleen: 1.15 (0.23) %ID/g
  Mean %ID/g, Stomach: 1.33 (0.33) %ID/g
1 h after dosing, listed as [18F]SYN2
  Mean %ID/g, Heart: 2.99 (0.20) %ID/g
1 h post-injection
  heart/blood ratio: 37
2 h after dosing
  Mean %ID, Brain: 0.12 (0.01) %ID
  Mean %ID, Heart: 2.03 (0.23) %ID
  Mean %ID, Intestine: 25.93 (2.92) %ID
  Mean %ID, Kidneys: 9.65 (1.42) %ID
  Mean %ID, Liver: 2.46 (0.28) %ID
  Mean %ID, Lungs: 1.25 (0.31) %ID
  Mean %ID, Pancreas: 0.94 (0.22) %ID
  Mean %ID, Rest of the body: 44.09 (5.00) %ID
  Mean %ID, Spleen: 0.44 (0.04) %ID
  Mean %ID, Stomach: 1.66 (0.16) %ID
  Mean %ID, Urine: 3.94 (3.35) %ID
  Mean %ID/g, Blood: 0.04 (0.00) %ID/g
  Mean %ID/g, Brain: 0.07 (0.00) %ID/g
  Mean %ID/g, Heart: 2.58 (0.24) %ID/g
  Mean %ID/g, Intestine: 1.50 (0.24) %ID/g
  Mean %ID/g, Kidneys: 5.10 (0.85) %ID/g
  Mean %ID/g, Liver: 0.30 (0.04) %ID/g
  Mean %ID/g, Lungs: 0.90 (0.22) %ID/g
  Mean %ID/g, Muscle: 0.41 (0.09) %ID/g
  Mean %ID/g, Pancreas: 1.55 (0.36) %ID/g
  Mean %ID/g, Spleen: 0.84 (0.11) %ID/g
  Mean %ID/g, Stomach: 1.23 (0.22) %ID/g
4 h after dosing
  Mean %ID, Brain: 0.25 (0.04) %ID
  Mean %ID, Heart: 2.15 (0.08) %ID
  Mean %ID, Intestine: 30.51 (0.47) %ID
  Mean %ID, Kidneys: 5.20 (0.36) %ID
  Mean %ID, Liver: 1.71 (0.27) %ID
  Mean %ID, Lungs: 0.89 (0.02) %ID
  Mean %ID, Pancreas: 0.84 (0.35) %ID
  Mean %ID, Rest of the body: 44.50 (2.38) %ID
  Mean %ID, Spleen: 0.32 (0.03) %ID
  Mean %ID, Stomach: 1.94 (0.38) %ID
  Mean %ID, Urine: 12.42 (1.40) %ID
  Mean %ID/g, Blood: 0.06 (0.02) %ID/g
  Mean %ID/g, Brain: 0.13 (0.02) %ID/g
  Mean %ID/g, Heart: 2.68 (0.44) %ID/g
  Mean %ID/g, Intestine: 1.88 (0.10) %ID/g
  Mean %ID/g, Kidneys: 2.86 (0.08) %ID/g
  Mean %ID/g, Liver: 0.21 (0.05) %ID/g
  Mean %ID/g, Lungs: 0.70 (0.02) %ID/g
  Mean %ID/g, Muscle: 0.51 (0.04) %ID/g
  Mean %ID/g, Pancreas: 1.56 (0.06) %ID/g
  Mean %ID/g, Spleen: 0.66 (0.06) %ID/g
  Mean %ID/g, Stomach: 1.58 (0.25) %ID/g
6 h after dosing
  Mean %ID, Brain: 0.21 (0.02) %ID
  Mean %ID, Heart: 2.27 (0.21) %ID
  Mean %ID, Intestine: 33.4 ± 1.4 %ID
  Mean %ID, Kidneys: 3.4 ± 0.4 %ID
  Mean %ID, Liver: 1.07 (0.11) %ID
  Mean %ID, Lungs: 0.78 (0.14) %ID
  Mean %ID, Pancreas: 0.80 (0.05) %ID
  Mean %ID, Rest of the body: 44.67 (1.68) %ID
  Mean %ID, Spleen: 0.29 (0.02) %ID
  Mean %ID, Stomach: 1.53 (0.15) %ID
  Mean %ID, Urine: 15.27 (0.87) %ID
  Mean %ID/g, Blood: 0.04 (0.01) %ID/g
  Mean %ID/g, Brain: 0.13 (0.01) %ID/g
  Mean %ID/g, Heart: 2.79 %ID/g
  Mean %ID/g, Intestine: 2.00 (0.49) %ID/g
  Mean %ID/g, Kidneys: 1.69 (0.22) %ID/g
  Mean %ID/g, Liver: 0.12 (0.02) %ID/g
  Mean %ID/g, Lungs: 0.55 (0.08) %ID/g
  Mean %ID/g, Muscle: 0.53 (0.05) %ID/g
  Mean %ID/g, Pancreas: 1.27 (0.10) %ID/g
  Mean %ID/g, Spleen: 0.56 (0.02) %ID/g
  Mean %ID/g, Stomach: 1.12 (0.12) %ID/g
[2]
  Mean %ID, Intestine: 33.42 (1.37) %ID
  Mean %ID, Kidneys: 3.44 (0.37) %ID
Ex vivo biodistribution
  retention in all other organs examined (other than intestine, kidneys): < 2 %ID/g
From 2 to 6 h
  myocardial uptake: 2.6–2.8 %ID/g
Up to 6 h
  uptake in the myocardium: higher than 2.5 %ID/g
Within 1-hour post-injection
  myocardial uptake: about 3.0 %ID/g
